In patent EP0408330A2, “Anti-infective agents, process for their preparation and their use in therapy” (priority 1989, dated 1991):

What was measured:
Gram negative bacteria = experiment: In vitro assessment of Gram negative activity (MIC/MBC panel); format: cell-based
Experimental: (§1) Minimum inhibitory concentrations (MIC), minimum bactericidal concentrations (MBC), rates of killing and the incidence of naturally occurring resistant mutants were determined for silver fusidate prepared according to Example 1. MICs were determined by the plate dilution method using IsoSensitest (IsoSensitest is a Trade Mark) media supplemented where necessary with 5% lysed horse blood. Two inocula were used, 10⁶ and 10⁴ cfu. MICs were read after overnight incubation in the appropriate atmosphere. The plates bearing the 10⁶ inocula were replicated using velvet pads for the determination of MBC which is defined as the lowest antibiotic concentration killing at least 99.9% of the original inoculum.
(§2) 20 strains of the following species were tested:
(§3) Gram negative: Escherichia coli, Enterobacter spp., Klebsiella pneumoniae, Acinetobacter spp., Pseudomonas aeruginosa, Providencia stuartii, Proteus mirabilis, indole-positive Proteae (10 each of Prov. rettgeri and Pr. vulgaris).

MRSA = experiment: MIC / MBC, plate dilution method (MBC by replica plating with velvet pads); format: cell-based, methicillin-resistant Staph. aureus (MRSA); conditions: inoculum of 10⁶ org/ml, 20 strains
Experimental: as §1, §2
(§4) Gram positive: methicillin-resistant Staph. aureus (MRSA), methicillin-sensitive Staph. aureus (MSSA), methicillin-resistant Staph. epidermidis (MRSE), Enterocci, Streptococcus pyogenes, Candida albicans, Clostridium spp.

Pseudomas sp. = experiment: as above; format: cell-based, Pseudomonas aeruginosa
Experimental: as §1, §2, §3

[1] = test system: various strains of Staphylococcus; experiment: Incidence of naturally occurring resistant mutants; format: cell-based; conditions: absence of growth in the presence of 100 µg/ml
Experimental: as §1

[2] = test system: one particular strain of Staphyloccus; experiment: Rates of killing; format: cell-based; conditions: non-growing state compared with growing state
Experimental: as §1
This is a very interesting observation because it is known that certain strains of Staphylococcus colonize, e.g., the nose, creating in the host a carrier state. Carrier state hosts are a constant source of potential infection both for themselves and those they come in contact with. This is a particularly troublesome source of infections in the hospital environment. It is recognized that the cheapest and most efficient way off removing this problem from a hospital is to remove or discharge the carrier. […]

[3] = test system: Gram positive and Gram negative bacteria and Candida albicans; experiment: In vitro assessment of spectrum of activity (MIC/MBC panel); format: cell-based; conditions: compared to sodium fusidate and silver sulphadiazine
Experimental: as §1, §2, §4, §3

[4] = test system: coagulase negative Staphylococci; experiment: MIC determination, zinc fusidate panel; format: cell-based; conditions: 2 strains
Experimental: (§5) MICs were determined for zinc fusidate prepared according to Example 3 using the following Gram positive and Gram negative panels:
(§6) 4 strains of Staphylococcus aureus (2 methicillin-resistant, 2 methicilllin-sensitive) and 2 strains each of coagulase-negative staphylococci, Staph. saprophyticus, Enterococci, Streptococcus pyogenes, Strept. agalactiae, Listeria monocytogenes, diphtheroids and Bacillus spp., 2 strains each of Escherichia coli, Klebsiella pneumoniae, Pseudomonas aeruginosa, Providencia stuartii, Proteus morganii, Salmonella typhimurium, Acinetobacter spp., Citrobacter freundii, Serratia marcescens and Enterobacter cloacae.

[5] = test system: remaining Gram positive organisms; experiment: MIC determination, zinc fusidate panel; format: cell-based; conditions: remaining Gram positive organisms of the panel
Experimental: as §5, §6

Gram positive bacteria = experiment: MIC determination, zinc fusidate panel, overall assessment; format: cell-based
Experimental: as §5, §6

`CC(=O)O[C@H]1C[C@@]2(C)[C@@H](C[C@@H](O)[C@H]3[C@@]4(C)CC[C@@H](O)[C@@H](C)[C@@H]4CC[C@@]32C)/C1=C(\CCC=C(C)C)C(=O)O` [sodium fusidate] was tested, and the Gram negative activity (Gram negative bacteria) was “total lack of Gram negative activity”.
With silver fusidate the MIC range (MRSA) was 0.13 to 64 µg/mL, the MBC range (Pseudomas sp.) was 32 to 64 µg/mL and the MIC range (Pseudomas sp.) was 32 to 64 µg/mL. The “incidence of silver fusidate resistant mutants” value [1] was “too low to be measured”, the rate of killing [2] was “killed more rapidly in a non-growing state” and the spectrum of activity [3] was “broad spectrum of activity”.
Work on “silver salt of N¹-(pyrimidin-2-yl) sulphanilamide [silver sulphadiazine, reference compound]” yielded an MBC range (MRSA; lowest concentration killing at least 99.9% of the original inoculum) of 128 to 256 µg/mL.
With zinc fusidate the MIC range [4] was 10 to 100 µg/mL, the MIC range [5] was under 1 to 10 µg/mL and the “activity against Gram positive bacteria” value (Gram positive bacteria) was “demonstrates activity”.
